Results reported in the CheMixHub viscosity set.

Assay: xn = mol fraction of the nth substance listed

CO + O
Conditions	viscosity [mPa·s]
293.15 K, 100 kPa, x1 = 0.2	1.801
293.15 K, 100 kPa, x1 = 0.3	1.845
293.15 K, 100 kPa, x1 = 0.4	1.764
293.15 K, 101 kPa, x1 = 0.055	1.262
293.15 K, 101 kPa, x1 = 0.129	1.651
293.15 K, 101 kPa, x1 = 0.232	1.836
293.15 K, 101 kPa, x1 = 0.487	1.555
293.15 K, 101 kPa, x1 = 0.541	1.418
293.15 K, 101 kPa, x1 = 0.625	1.23
293.15 K, 101 kPa, x1 = 0.642	1.186
293.15 K, 101 kPa, x1 = 0.903	0.745
293.15 K, 101.3 kPa, x1 = 0.05886	1.276
293.15 K, 101.3 kPa, x1 = 0.05892	1.276
293.15 K, 101.3 kPa, x1 = 0.1014	1.465
293.15 K, 101.3 kPa, x1 = 0.1021	1.453
293.15 K, 101.3 kPa, x1 = 0.1493	1.628
293.15 K, 101.3 kPa, x1 = 0.1972	1.742
293.15 K, 101.3 kPa, x2 = 0.0969	0.743
293.15 K, 101.3 kPa, x2 = 0.2006	0.916
293.15 K, 101.3 kPa, x2 = 0.3002	1.105
293.15 K, 101.3 kPa, x2 = 0.4001	1.314
293.15 K, 101.3 kPa, x2 = 0.5	1.501
293.15 K, 101.3 kPa, x2 = 0.7	1.837
293.15 K, 101.3 kPa, x2 = 0.85	1.705
293.15 K, 101.3 kPa, x2 = 0.9	1.528
293.15 K, 101.3 kPa, x2 = 0.95	1.278
298.15 K, 101 kPa, x1 = 0.0519	1.129
298.15 K, 101 kPa, x1 = 0.0845	1.264
298.15 K, 101 kPa, x1 = 0.125	1.385
298.15 K, 101 kPa, x1 = 0.217	1.576
298.15 K, 101 kPa, x1 = 0.274	1.59
298.15 K, 101 kPa, x1 = 0.465	1.35
298.15 K, 101 kPa, x1 = 0.702	1.03
298.15 K, 101 kPa, x2 = 0.9413	1.1
298.15 K, 101.3 kPa, x1 = 0.1021	1.3
298.15 K, 101.3 kPa, x1 = 0.1233	1.392
298.15 K, 101.3 kPa, x1 = 0.2727	1.595
298.15 K, 101.3 kPa, x1 = 0.3599	1.534
298.15 K, 101.3 kPa, x1 = 0.4576	1.401
298.15 K, 101.3 kPa, x1 = 0.5675	1.218
298.15 K, 101.3 kPa, x1 = 0.6922	1.005
298.15 K, 101.3 kPa, x1 = 0.835	0.782
298.15 K, 101.3 kPa, x1 = 0.9144	0.659
298.15 K, 101.33 kPa, x1 = 0.03958	1.055
298.15 K, 101.33 kPa, x1 = 0.05923	1.157
298.15 K, 101.33 kPa, x1 = 0.1332	1.403
298.15 K, 101.33 kPa, x1 = 0.2396	1.6
298.15 K, 101.33 kPa, x1 = 0.2551	1.575
298.15 K, 101.33 kPa, x1 = 0.2785	1.57
298.15 K, 101.33 kPa, x1 = 0.3255	1.57
298.15 K, 101.33 kPa, x1 = 0.3558	1.532
298.15 K, 101.33 kPa, x1 = 0.3863	1.49
298.15 K, 101.33 kPa, x1 = 0.4426	1.427
298.15 K, 101.33 kPa, x1 = 0.4685	1.37
298.15 K, 101.33 kPa, x1 = 0.5278	1.282
298.15 K, 101.33 kPa, x1 = 0.6055	1.167
298.15 K, 101.33 kPa, x1 = 0.6583	1.105
303.15 K, 101 kPa, x1 = 0.055	0.978
303.15 K, 101 kPa, x1 = 0.129	1.245
303.15 K, 101 kPa, x1 = 0.176	1.313
303.15 K, 101 kPa, x1 = 0.256	1.37
303.15 K, 101 kPa, x1 = 0.487	1.218
303.15 K, 101 kPa, x1 = 0.541	1.126
303.15 K, 101 kPa, x1 = 0.642	0.974
303.15 K, 101 kPa, x1 = 0.903	0.63
303.15 K, 101.3 kPa, x1 = 0.0588	1.015
303.15 K, 101.3 kPa, x1 = 0.1233	1.206
303.15 K, 101.3 kPa, x1 = 0.2727	1.381
303.15 K, 101.3 kPa, x1 = 0.4576	1.239
303.15 K, 101.3 kPa, x1 = 0.5675	1.085
303.15 K, 101.3 kPa, x1 = 0.6922	0.907
303.15 K, 101.3 kPa, x1 = 0.835	0.714
303.15 K, 101.3 kPa, x1 = 0.9144	0.612
303.15 K, 101.3 kPa, x2 = 0.0969	0.634
303.15 K, 101.3 kPa, x2 = 0.1	0.618
303.15 K, 101.3 kPa, x2 = 0.2006	0.768
303.15 K, 101.3 kPa, x2 = 0.208	0.755
303.15 K, 101.3 kPa, x2 = 0.3002	0.906
303.15 K, 101.3 kPa, x2 = 0.3041	0.878
303.15 K, 101.3 kPa, x2 = 0.4001	1.062
303.15 K, 101.3 kPa, x2 = 0.5	1.177
303.15 K, 101.3 kPa, x2 = 0.5599	1.263
303.15 K, 101.3 kPa, x2 = 0.6148	1.306
303.15 K, 101.3 kPa, x2 = 0.7	1.39
303.15 K, 101.3 kPa, x2 = 0.7982	1.308
303.15 K, 101.3 kPa, x2 = 0.8	1.361
303.15 K, 101.3 kPa, x2 = 0.85	1.284
303.15 K, 101.3 kPa, x2 = 0.9043	1.108
303.15 K, 101.3 kPa, x2 = 0.95	0.999
303.15 K, 101.33 kPa, x2 = 0.1232	0.625
303.15 K, 101.33 kPa, x2 = 0.1599	0.679
303.15 K, 101.33 kPa, x2 = 0.2168	0.765
303.15 K, 101.33 kPa, x2 = 0.2992	0.874
303.15 K, 101.33 kPa, x2 = 0.3639	0.972
303.15 K, 101.33 kPa, x2 = 0.3948	1.021
303.15 K, 101.33 kPa, x2 = 0.4567	1.129
303.15 K, 101.33 kPa, x2 = 0.5837	1.31
303.15 K, 101.33 kPa, x2 = 0.8272	1.319
303.15 K, 101.33 kPa, x2 = 0.8782	1.213
303.15 K, 101.33 kPa, x2 = 0.886	1.185
303.15 K, 101.33 kPa, x2 = 0.9125	1.11
308.15 K, 101 kPa, x1 = 0.125	1.07
308.15 K, 101 kPa, x1 = 0.274	1.22
308.15 K, 101 kPa, x1 = 0.465	1.08
308.15 K, 101 kPa, x1 = 0.702	0.834
308.15 K, 101 kPa, x2 = 0.9413	0.9361
308.15 K, 101.3 kPa, x1 = 0.0588	0.894
308.15 K, 101.3 kPa, x1 = 0.1233	1.062
308.15 K, 101.3 kPa, x1 = 0.1943	1.172
308.15 K, 101.3 kPa, x1 = 0.2727	1.213
308.15 K, 101.3 kPa, x1 = 0.3599	1.18
313.15 K, 101 kPa, x1 = 0.055	0.78
313.15 K, 101 kPa, x1 = 0.129	0.974
313.15 K, 101 kPa, x1 = 0.176	1.021
313.15 K, 101 kPa, x1 = 0.232	1.078
313.15 K, 101 kPa, x1 = 0.256	1.067
313.15 K, 101 kPa, x1 = 0.487	0.973
313.15 K, 101 kPa, x1 = 0.541	0.911
313.15 K, 101 kPa, x1 = 0.625	0.815
313.15 K, 101 kPa, x1 = 0.642	0.807
313.15 K, 101 kPa, x1 = 0.903	0.545
313.15 K, 101.3 kPa, x2 = 0.0969	0.544
313.15 K, 101.3 kPa, x2 = 0.2006	0.643
313.15 K, 101.3 kPa, x2 = 0.3002	0.749
313.15 K, 101.3 kPa, x2 = 0.4001	0.861
313.15 K, 101.3 kPa, x2 = 0.5	0.945
313.15 K, 101.3 kPa, x2 = 0.6	1.022
313.15 K, 101.3 kPa, x2 = 0.7	1.091
313.15 K, 101.3 kPa, x2 = 0.8	1.054
313.15 K, 101.3 kPa, x2 = 0.85	0.995
313.15 K, 101.3 kPa, x2 = 0.9	0.907
313.15 K, 101.3 kPa, x2 = 0.95	0.788
318.15 K, 101 kPa, x1 = 0.125	0.832
318.15 K, 101 kPa, x1 = 0.274	0.952
318.15 K, 101 kPa, x1 = 0.465	0.868
318.15 K, 101 kPa, x1 = 0.702	0.69
318.15 K, 101 kPa, x2 = 0.9413	0.8181
323.15 K, 100 kPa, x1 = 0.2	0.832
323.15 K, 100 kPa, x1 = 0.3	0.86
323.15 K, 100 kPa, x1 = 0.4	0.848
323.15 K, 101 kPa, x1 = 0.055	0.64
323.15 K, 101 kPa, x1 = 0.129	0.785
323.15 K, 101 kPa, x1 = 0.176	0.818
323.15 K, 101 kPa, x1 = 0.232	0.857
323.15 K, 101 kPa, x1 = 0.256	0.849
323.15 K, 101 kPa, x1 = 0.487	0.796
323.15 K, 101 kPa, x1 = 0.541	0.746
323.15 K, 101 kPa, x1 = 0.625	0.678
323.15 K, 101 kPa, x1 = 0.642	0.673
323.15 K, 101 kPa, x1 = 0.903	0.475
323.15 K, 101.3 kPa, x1 = 0.9144	0.458
323.15 K, 101.3 kPa, x2 = 0.0969	0.47
323.15 K, 101.3 kPa, x2 = 0.2006	0.547
323.15 K, 101.3 kPa, x2 = 0.3002	0.628
323.15 K, 101.3 kPa, x2 = 0.4001	0.71
323.15 K, 101.3 kPa, x2 = 0.5	0.774
323.15 K, 101.3 kPa, x2 = 0.6	0.826
323.15 K, 101.3 kPa, x2 = 0.7	0.86
323.15 K, 101.3 kPa, x2 = 0.8	0.84
323.15 K, 101.3 kPa, x2 = 0.85	0.796
323.15 K, 101.3 kPa, x2 = 0.95	0.647
